Source: patent US5798335A, “Method for the treatment or prevention of eczema/dermatitis” (priority 1993, dated 1998)

How the values were obtained:
inflammatory lesions = settings: three lesions severity 1 on back; dermal spray morning and afternoon; after three days
Description: The usefulness of the method of the present invention was assessed in experiments using dogs.

skin conditions = tested on: skin conditions
Description: Following these initial trials a further trial was conducted […].
The trial was a double-blinded, placebo controlled trial in which the compound was compared with placebo treatment. […] The study was conducted as follows:
1. Assessment by a veterinarian.
2. Treatment Period A: 14 days.
3. Assessment by a veterinarian.
4. No treatment for seven days as a wash-out period.
5. Assessment by a veterinarian.
6. Treatment Period B: 14 days.
7. Assessment by a veterinarian.
8. No treatment for seven days.
9. Assessment by a veterinarian.

For “D-Ala-Ser-Thr-Thr-Thr-Asn-Tyr-Thr-NH2 [Peptide T]”, the “Treatment results (lesions)” value (inflammatory lesions) was “Lesions had disappeared”, the “cases of mild improvement in one parameter (usually erythema)” value (skin conditions; 14 day treatment period, crossover with placebo) was “five” and the “dogs with significant improvement” value (skin conditions; 14 day treatment period, these dogs had atopic dermatitis) was “two”. For the same substance, the “dogs with no change” value (skin conditions; 14 day treatment periods, crossover with placebo) was “ten”.
